Experimental data taken from US20260183321A1, “TREATMENT OF CORONAVIRUS INFECTIONS WITH ANTIMICROBIAL PHOSPHOLIPID COMPOSITIONS” (NATIONAL JEWISH HEALTH, priority 2022, published 2026).

How the values were obtained:
SARS-CoV-2 [1] = assay: quantitative plaque assay for SARS-CoV-2 in VeroE6 cells; format: cell-based; design: lowest concentration with significant reduction in viral load: unit not given here; conditions: for suppression of the viral burden elicited by SARS-CoV-2: MOI 0.01, 24 Hr after the initial infection, simultaneous treatment with virus plus lipid
Description: VeroE6 cells were infected with SARS-CoV-2 at an MOI=0.01 in either the absence of lipids, or presence of POPG, or PI, or POPC, at concentrations of 250 μg/ml-1000 μg/ml (SARS-CoV-2+POPG, SARS-CoV-2+PI) or the control lipid phosphatidylcholine (PC), at various concentrations (250 μg-1000 μg/ml) (SARS-CoV-2+PC). Cells were preincubated with lipids 30 mins before viral inoculation. Culture media was harvested at 24 hr and processed for quantitative plaque assay for SARS-CoV-2 (FIG. 1A) and for viral yield as a function of phospholipid concentration (FIG. 1). The data are shown as mean+/−SE for three independent experiments in log10 scale. is a graph of viral yield as a function of phospholipid concentration.
A sample holder containing 96 wells (3 plates) was provided and was plated with VeroE6 cells (a cell lineage isolated from kidney epithelial cells extracted from an African green monkey) at a concentration of 5×10^4 cells/well in 100 μl of medium. The medium utilized comprised Dulbecco's Modified Eagle Medium (DMEM), 5% fetal bovine serum (FCS), 1% L-glutamine, and 10,000 U/ml penicillin-streptomycin (PS). Here, it is noted that the antibiotics penicillin and streptomycin are commonly utilized to prevent bacterial contamination of cell cultures due to their effective combined action against gram-positive and gram-negative bacteria.
The wells were washed two times with calcium-free and magnesium-free phosphate buffered saline (PBS) (100 μl/well), and then an additional time with a culture medium consisting of DMEM, L-glutamine, 0.1% bovine serum albumin (BSA) and 10,000 U/ml PS.
The cells were then preincubated with lipids in the culture medium (100 μl/well) for 30-60 minutes at 37° C. Samples of SARS-CoV-2 virus were added at multiplicities of infection (MOI) of 0.01 and the virus was allowed to absorb for 2 hours at 37° C. […]
FIGS. 1A and 1B depicts the results obtained for quantitative plaque assay for SARS-CoV-2 (FIG. 1A) and for % viral yield as a function of phospholipid concentration (FIG. 1B).

SARS-CoV-2 [2] = assay: SARS-CoV-2 replication by qRT-PCR in differentiated nasal epithelial cells from a patient with COPD; format: cell-based; conditions: 48 hrs, 5 mg/ml POPG, 2 mg/ml PI
SARS-CoV-2 [3] = assay: cytopathic effect by SARS-CoV-2 in VeroE6 cells (histological images); format: cell-based; conditions: 72 hrs after infection, POPG 1000 μg/ml, PI 500 μg/ml, PC 2000 μg/ml
SARS-CoV-2 [4] = format: cell-based; conditions: 48 hrs; for reduction of SARS-CoV-2 mRNA expression: healthy control subjects (n=3), lipid 16 hrs before infection, 5 mg/ml POPG, 2 mg/ml PI
VeroE6 cells = assay: cell viability assays on VeroE6 cells; format: cell-based, African green monkey; conditions: 2 mg/ml
[5] = molecular target: T1, SARS-CoV-2 S1 ECD protein (Severe acute respiratory syndrome coronavirus 2, UniProt P0DTC2); assay: binding to SARS-CoV-2 S1 ECD protein
T1 construct: SARS-CoV-2 S1 ECD protein

[6] = tested on: primary human bronchial epithelial cells; assay: 3H-leucine protein synthesis and secretion in primary human bronchial epithelial cells in ALI cultures; format: cell-based; conditions: for pleiotropic inhibition of metabolism (3H-intracellular protein synthesis, 3H secreted protein): 64 h with 3H-leucine, 5 mg/mL POPG or 2 mg/ml PI in apical media; for cytotoxic effects on primary airway epithelial cells: cells from patients with COPD as worded in b103 (FIGS. 11A-11B)
Description: Bronchial epithelia cells were incubated for 64 h with 3H-leucine in either the presence, or absence of 5 mg/mL of POPG; or 2 mg/ml of PI in only the apical media. 3H-intracellular protein synthesis (FIG. 11A), and 3H secreted protein in apical media (FIG. 11B) are shown. […]

SARS-CoV-2 [7] = assay: hamster model of SARS-CoV-2 infection, intranasal treatment; format: in vivo, Syrian hamsters

Molecule: CCCCCCCC/C=C\CCCCCCCC(=O)O[C@H](COC(=O)CCCCCCCCCCCCCCC)COP(=O)(O)OCC(O)CO (stereo partly shown) [POPG, palmitoyl-oleoyl-phosphatidylglycerol]
- suppression of the viral burden elicited by SARS-CoV-2 (SARS-CoV-2 [1]): 90%
- attenuation of SARS-CoV-2 replication (SARS-CoV-2 [2]): 80%
- state of infected cell cultures (cytopathic effect) (SARS-CoV-2 [3]): remained intact
- reduction of SARS-CoV-2 mRNA expression (SARS-CoV-2 [4]): 75%
- replication in differentiated nasal epithelial cells of severe asthmatics (SARS-CoV-2 [4]): inhibit replication
- toxicity on VeroE6 cells (VeroE6 cells): Neither POPG, PI or POPC elicited toxicity
- binding to SARS-CoV-2 S1 ECD protein [5]: weak affinity and non-specific manner
- pleiotropic inhibition of metabolism (3H-intracellular protein synthesis, 3H secreted protein) [6]: does not produce pleiotropic inhibition of metabolism
- cytotoxic effects on primary airway epithelial cells [6]: neither POPG nor PI had cytotoxic effects

Molecule: phosphatidylinositol [PI]
- lowest concentration with significant reduction in viral load (SARS-CoV-2 [1]; 24 hr): ≥ 250
- suppression of the viral burden elicited by SARS-CoV-2 (SARS-CoV-2 [1]): 99%
- attenuation of SARS-CoV-2 replication (SARS-CoV-2 [2]): 85%
- state of infected cell cultures (cytopathic effect) (SARS-CoV-2 [3]): remained intact
- reduction of SARS-CoV-2 mRNA expression (SARS-CoV-2 [4]): 87%
- replication in differentiated nasal epithelial cells of severe asthmatics (SARS-CoV-2 [4]): inhibit replication
- toxicity on VeroE6 cells (VeroE6 cells): Neither POPG, PI or POPC elicited toxicity
- SARS-CoV-2 replication in hamsters (plaque assays of pharyngeal swabs) (SARS-CoV-2 [7]; PI 2 mg/animal intranasal, days 1-3): inhibits SARS-CoV-2 replication
- mean turbinate viral load (SARS-CoV-2 [7]; hamsters, 2 mg PI intranasal, after 24 hours, untreated group 2.4E+04): 9.3E+01
- % inhibition of viral load (SARS-CoV-2 [7]; hamsters, single dose of 2 mg PI, after 24 hours, versus untreated): 99.6%
- binding to SARS-CoV-2 S1 ECD protein [5]: weak affinity and non-specific manner
- pleiotropic inhibition of metabolism (3H-intracellular protein synthesis, 3H secreted protein) [6]: does not produce pleiotropic inhibition of metabolism
- cytotoxic effects on primary airway epithelial cells [6]: neither POPG nor PI had cytotoxic effects

Molecule: phosphatidylcholine [PC, reference compound]
- state of infected cell cultures (cytopathic effect) (SARS-CoV-2 [3]): significant cytopathic effects
- effect on SARS-CoV-2 replication (SARS-CoV-2 [4]; healthy control subjects, PC 10 mg/ml): did not affect SARS-CoV-2 replication
- toxicity on VeroE6 cells (VeroE6 cells): Neither POPG, PI or POPC elicited toxicity
